Assay results as given in patent US7071211B2, “Small organic molecules that increase the activity of gelatinase a in ocular cells” (Bausch & Lomb Inc., priority 2002, dated 2006).

How the values were obtained:
MT-MMP [1] = test: Thiopeptolide assay of cell-associated gelatinase activity ascribed to MT-MMP in TM cells; assay type: cell-based, Rhesus monkey; conditions: for Percent Activation Over control value: 48 hours incubation, OD 410 nm vs CACM control
Description: Two days before molecule testing, the medium is replace by a defined, serum-free medium such as Minimum Essential Medium (MEM) containing defined supplements as described by Schachtschabel and Binninger, Z.f.Gerontol. […] Unless specifically noted, all molecules tested were prepared as stock solutions in dimethyl sulfoxide (DMSO) with a final concentration of 10 mg/ml. The stocks were stored in a dessicator at −20 degrees Celsius. In testing the molecules, the molecules were diluted to final concentrations of 0.3 ug/ml and 15 ug/ml in a simplified culture medium based on Ames' medium, called Concanavalin A (Con A) conditioning medium (CACM). The monkey TM cells were incubated with the test molecules for 48 hours. Control medium of CACM plus DMSO and a positive control with 5 ug/ml Con A plus DMSO were run in parallel. […] Next 100 uL of a doubly (2×) concentrated mixture of the thiopeptolide substrate (from a forty times (40×) concentrated DMSO stock, to give 1 mmol/L final concentration) freshly combined with the thiol reagent (5,5′dithiobis(2-nitrobenzoic acid (DTNB) from a twenty times (20×) concentrated DMSO stock to give 1 mmol/L) were added to each well and were incubated at 37 degrees Celsius for two hours with gentle agitation.
At the end of the incubation period, by means of a spectrophoto-metric plate reader, the optical density (OD) at 410 nm was determined for each well after automatic subtraction of a blank value for a well containing reaction mixture but without cells. The average OD at the two-hour end point for each test molecule at all concentrations in triplicate was calculated. This calculation was interpreted to be a measure of cell-associated MT-MMP level, equivalently defined as either its activity (a catalytic property of the enzyme) or expression (number of functional molecules). The percent difference in OD for each sample compared to the CACM control reflects the effectiveness of each test molecule or combination of molecules in eliciting increases in MT-MMP levels. As an alternate to the end point OD reading, one may use the mean rate of appearance of the reaction product (mean V), calculated from the best linear fit of the data to absorbance vs. time.
TM cells were exposed to molecules and combinations of molecules by means of simultaneous addition, from separate stocks, to incubation medium.

MT-MMP [2] = test: Co-activation thiopeptolide assay (test compound with Con A or a second test compound) in TM cells; assay type: cell-based, Rhesus monkey
From the text: Concanavalin A (Con A) binds to mannose groups on cell membrane gycoproteins. Because of its tetravalent nature, Con A binding leads to oligomerization of these “receptors,” possibly in the form of heterogeneous aggregates. Con A stimulation elicits increased expression of MT-MMP with concomitant ability to activate proGelA. The response, as measured by the magnitude of zymographic bands and by thiopeptolide assay, is dose-dependent. Thus the effects of co-activation using a submaximal dose of Con A plus treatment with a small molecule that may or may not be active by itself, are measured in the subject activation assay.
For the coactivation assays, following the preliminary steps set forth above preceding incubation with test compounds in Example 1, cells subsequently undergo one of the following protocols. • Protocol 1. Cells are incubated with a particular test compound for twenty-four hours. This incubation period is followed by a second twenty-four hour incubation period, in which the culture medium containing the first test compound is completely replaced by medium containing 5 ug/ml Con A. • Protocol 2. Cells are incubated with a particular first test compound for twenty-four hours, followed by a second forty-eight hour incubation in which the medium containing the first test compound is completely replaced by medium containing either Con A, as described above, or a second test compound. • Protocol 3. Cells are incubated with a combination of a test compound together with 5 ug/ml Con A for forty-eight hours.
Two controls, with or without 5 ug/ml Con A are run in parallel as described in Example 1. After incubation with these agents, cells are processed in equivalently to those in Example 1. Instead of comparison of the OD values with a CACM control, the results are compared with samples using Con A alone, or with a single test compound as described in Protocol 2 above, as set forth in Table 5 below.

MT1-MMP [3] = conditions: human cervical fibroblasts; Ito et al. 1998; cited from earlier work
MT1-MMP [4] = conditions: Alexander and Acott 1999; cited from earlier work

## COc1ccc(/C(C#N)=N/OC(=O)N2CCCCC2)cc1OC [Molecule 1]
MT-MMP [1]; Conc. 0.9 umol/L
  Percent Activation Over control value: 48.1%
MT-MMP [1]; Conc. 47.31 umol/L
  Percent Activation Over control value: 260.4%

## CC(C)N(CC(O)COc1cccc2ccccc12)C(N)=O (stereo not shown) [Molecule 4]
MT-MMP [1]; Conc. 1.0 umol/L
  Percent Activation Over control value: 5.9%
MT-MMP [1]; Conc. 49.6 umol/L
  Percent Activation Over control value: 73.4%

## N#C/C(=N\OC(=O)N1CCCCC1)c1c(F)cccc1F [Molecule 2]
MT-MMP [1]; Conc. 1.0 umol/L
  Percent Activation Over control value: 33.8%
MT-MMP [1]; Conc. 51.1.1 umol/L
  Percent Activation Over control value: 420.5%

## CC(C)N(CCCOc1cccc2ccccc12)C(N)=O [Molecule 6]
MT-MMP [1]; Conc. 1.0 umol/L
  Percent Activation Over control value: 2.2%
MT-MMP [1]; Conc. 52.4 umol/L
  Percent Activation Over control value: 207.9%
MT-MMP [2]; Protocol 1 (24 h test compound, then 24 h 5 ug/ml Con A), Conc. 104.8 umol/L with Con A
  Activity (% increase over Con A above, or as otherwise noted): 183.9%
MT-MMP [2]; Protocol 2 (24 h test compound, then 48 h Con A), Conc. 34.9 umol/L with Con A
  Activity (% increase over Con A above, or as otherwise noted): 49.0%
MT-MMP [2]; Protocol 2 (24 h test compound, then 48 h Con A), Conc. 100.0 umol/L with Con A
  Activity (% increase over Con A above, or as otherwise noted): 70.9%

## CSC(=N)N/N=C/c1c(Cl)cccc1Cl [Molecule 11]
MT-MMP [1]; Conc. 1.14 umol/L
  Percent Activation Over control value: (−20.9) Percent
MT-MMP [1]; Conc. 57.22 umol/L
  Percent Activation Over control value: 88.1%

## NC(=O)N1c2ccccc2C=Cc2ccccc21 [Molecule 14]
MT-MMP [1]; Conc. 1.27 umol/L
  Percent Activation Over control value: 7.7%
MT-MMP [1]; Conc. 63.49 umol/L
  Percent Activation Over control value: 115.6%

## CC(C#N)c1ccc2c(c1)N(C)C1C=CC=CC1S2 (stereo not shown) [Molecule 13]
MT-MMP [1]; Conc. 1.1 umol/L
  Percent Activation Over control value: 74.6%
MT-MMP [1]; Conc. 55.9 umol/L
  Percent Activation Over control value: 68.5%
MT-MMP [2]; Protocol 1 (24 h test compound, then 24 h 5 ug/ml Con A), Conc. 1.1 umol/L with Con A
  Activity (% increase over Con A above, or as otherwise noted): 18.1%
MT-MMP [2]; Protocol 1 (24 h test compound, then 24 h 5 ug/ml Con A), Conc. 55.9 umol/L with Con A
  Activity (% increase over Con A above, or as otherwise noted): 109.5%

## Concanavalin A [Con A, reference compound]
MT-MMP [1]; measured by magnitude of zymographic bands and by thiopeptolide assay
  Increased expression of MT-MMP on Con A stimulation (response): dose-dependent

## NCCCCCCNS(=O)(=O)c1cccc2c(Cl)cccc12 [Molecule W-7]
MT1-MMP [3]
  MT1-MMP-induced activation of Gelatinase A (GelA): not particularly pronounced

## N=C(N)NNC(O)c1c(Cl)cccc1Cl (stereo not shown) [Molecule 12]
MT-MMP [1]; Conc. 1.05 umol/L
  Percent Activation Over control value: 3.2%
MT-MMP [1]; Conc. 52.53 umol/L
  Percent Activation Over control value: 101.6%

## CCCCCCCCCCCCCC(=O)O[C@@H]1[C@@H](C)[C@@]2(O)[C@@H](C=C(CO)C[C@]3(O)C(=O)C(C)=C[C@@H]23)[C@@H]2C(C)(C)[C@]12OC(C)=O [phorbol ester, phorbol 12-myristate 13-acetate]
MT1-MMP [4]
  Expression of MT1-MMP: increased expression of MT1-MMP

## CNC(=O)N(CCOc1cccc(Cl)c1Cl)C(C)C [Molecule 7]
MT-MMP [1]; Conc. 1.0 umol/L
  Percent Activation Over control value: (−7.9) Percent
MT-MMP [1]; Conc. 49.2 umol/L
  Percent Activation Over control value: 274.0%
MT-MMP [2]; Protocol 2 (24 h test compound, then 48 h Con A), Conc. 49.1 umol/L with Con A
  Activity (% increase over Con A above, or as otherwise noted): 59.8%

## Cc1cccc(Cl)c1/C=N/NC(=N)N [Molecule 8]
MT-MMP [1]; Conc. 2.6 umol/L
  Percent Activation Over control value: 2.9%
MT-MMP [1]; Conc. 12.98 umol/L
  Percent Activation Over control value: 12.7%
MT-MMP [1]; Conc. 64.91 umol/L
  Percent Activation Over control value: 54.3%
MT-MMP [1]; Conc. 129.81 umol/L
  Percent Activation Over control value: 106.8%

## CN1CCN(CCCN2c3ccccc3Sc3ccc(C(F)(F)F)cc32)CC1 [trifluoperazine]
MT1-MMP [3]
  MT1-MMP-induced activation of Gelatinase A (GelA): resulted in MT1-MMP-induced activation of Gelatinase A

## CC/C(=N\NC(=N)N)c1ccccc1 [Molecule 9]
MT-MMP [1]; Conc. 1.18 umol/L
  Percent Activation Over control value: 21.4%
MT-MMP [1]; Conc. 118.44 umol/L
  Percent Activation Over control value: 82.4%
